The assay deals with IRAK4 (Homo sapiens (Human), UniProt Q9NWZ3). Put plainly: IRAK-4 AlphaScreen biochemical kinase assay. Conditions: 1 nM IRAK4, 1 mM ATP, 3.5 h at RT. In short, it runs like this: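 AlphaScreen read-out: streptavidin beads bind the biotinylated peptide and protein A beads bind the anti-phosphothreonine antibody, so energy transfer reports phosphorylation of the peptide. The kinase is human IRAK-4.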
(In general: In Alpha technology, singlet oxygen from a donor bead excites a nearby acceptor bead.)

IRAK4, sequence (Q9NWZ3 whole entry, species assumed): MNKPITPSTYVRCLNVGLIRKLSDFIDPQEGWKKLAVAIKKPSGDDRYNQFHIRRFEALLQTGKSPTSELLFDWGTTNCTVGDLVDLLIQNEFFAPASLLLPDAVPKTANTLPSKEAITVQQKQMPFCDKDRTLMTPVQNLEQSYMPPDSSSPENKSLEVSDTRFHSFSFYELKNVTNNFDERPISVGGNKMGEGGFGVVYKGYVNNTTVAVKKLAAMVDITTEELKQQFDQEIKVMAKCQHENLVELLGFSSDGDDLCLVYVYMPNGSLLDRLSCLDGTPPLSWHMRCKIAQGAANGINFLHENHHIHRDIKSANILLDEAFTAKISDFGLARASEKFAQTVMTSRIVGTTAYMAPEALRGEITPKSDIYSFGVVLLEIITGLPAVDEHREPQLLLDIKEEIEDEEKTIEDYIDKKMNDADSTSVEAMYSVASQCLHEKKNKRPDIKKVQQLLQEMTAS

One may read the IC50 as the point on the concentration scale where inhibition reaches its midpoint. The low end stands for inhibition by little substance, the high end for a need for much substance. In turn, `COc1cc(-c2cccc(C(C)N)n2)cc2c1cnn2-c1cccc(CO)n1` (centres unmarked) [Example 307, (6-(6-(6-(1-aminoethyl)pyridin-2-yl)-4-methoxy-1H-indazol-1-yl)pyridin-2-yl)methanol] gave an IC50 of less than 100 nM. Under `Cc1cccc(-n2ncc3ccc(-c4ccc5c(n4)C(N)CCCC5)cc32)n1` (centres unmarked) [Example 308, 2-(1-(6-methylpyridin-2-yl)-1H-indazol-6-yl)-6,7,8,9-tetrahydro-5H-cyclohepta[b]pyridin-9-amine] stands 100 to 1000 nM; under `CC(N)c1cccc(-c2cc(CO)c3cnn(-c4cccc(CO)n4)c3c2)n1` (centres unmarked) [Example 309, (6-(6-(1-aminoethyl)pyridin-2-yl)-1-(6-(hydroxymethyl)pyridin-2-yl)-1H-indazol-4-yl)methanol], less than 100 nM. Next, `Cc1cccc(-n2ncc3ccc(-c4csc(C(C)N)n4)cc32)n1` (centres unmarked) [Example 310, 1-(4-(1-(6-methylpyridin-2-yl)-1H-indazol-6-yl)thiazol-2-yl)ethanamine]: less than 100 nM.

Turning to `CC(N)c1cccc(-c2cc(Cl)c3cnc(-c4cccc(C(F)(F)F)n4)n3c2)n1` (centres unmarked) [Example 311, 1-(6-(8-chloro-3-(6-(trifluoromethyl)pyridin-2-yl)imidazo[1,5-a]pyridin-6-yl)pyridin-2-yl)ethanamine], the 50% inhibitory concentration (IC50) is less than 100 nM. Under `Cc1cccc(-n2ncc3ccc(-c4cccc(C5(C(N)=O)CCC5)n4)cc32)n1` [Example 312, 1-(6-(1-(6-methylpyridin-2-yl)-1H-indazol-6-yl)pyridin-2-yl)cyclobutanecarboxamide] stands less than 100 nM; under `Cc1cccc(-n2ncc3ccc(-c4cccc(CCC(F)(F)F)n4)cc32)n1` [Example 313, 1-(6-methylpyridin-2-yl)-6-(6-(3,3,3-trifluoropropyl)pyridin-2-yl)-1H-indazole], 1000 to 10000 nM; under `CC(N)c1cccc(-c2ccc3cnn(-c4cccc(CCO)n4)c3c2)n1` (centres unmarked) [Example 314, 2-(6-(6-(6-(1-aminoethyl)pyridin-2-yl)-1H-indazol-1-yl)pyridin-2-yl)ethanol], less than 100 nM. Next, `Cc1cc(C)nc(-n2ncc3ccc(-c4cccc(C(C)N)n4)cc32)c1` (centres unmarked) [Example 315, 1-(6-(1-(4,6-dimethylpyridin-2-yl)-1H-indazol-6-yl)pyridin-2-yl)ethanamine]: 1000 to 10000 nM; `CNC(=O)c1cc(-c2cccc(C(C)N)n2)cc2c1cnn2-c1cccc(CO)n1` (centres unmarked) [Example 316, 6-(6-(1-aminoethyl)pyridin-2-yl)-1-(6-(hydroxymethyl)pyridin-2-yl)-N-methyl-1H-indazole-4-carboxamide]: less than 100 nM; `CC(N)c1cccc(-c2cc(F)c3cnc(-c4cccc(C(F)(F)F)n4)n3c2)n1` (centres unmarked) [Example 317, 1-(6-(8-fluoro-3-(6-(trifluoromethyl)pyridin-2-yl)imidazo[1,5-a]pyridin-6-yl)pyridin-2-yl)ethanamine]: less than 100 nM.

On to `CC[C@H](N)c1cccc(-c2ccc3cnn(-c4cccc(CO)n4)c3c2)n1` [Example 318, (S)-(6-(6-(6-(1-aminopropyl)pyridin-2-yl)-1H-indazol-1-yl)pyridin-2-yl)methanol], for which the IC50 is less than 100 nM. Next, `Cc1cccc(-n2ncc3c(-c4cc[nH]n4)cc(-c4cccc(C(C)N)n4)cc32)n1` (centres unmarked) [Example 319, 1-(6-(1-(6-methylpyridin-2-yl)-4-(1H-pyrazol-3-yl)-1H-indazol-6-yl)pyridin-2-yl)ethanamine]: less than 100 nM. Under `Cc1cccc(-n2ncc3ccc(-c4csc(CO)n4)cc32)n1` [Example 320, (4-(1-(6-methylpyridin-2-yl)-1H-indazol-6-yl)thiazol-2-yl)methanol] stands 100 to 1000 nM; under `CC(N)c1cccc(-c2cc(F)c3cnn(-c4cccc(CO)n4)c3c2)n1` (centres unmarked) [Example 321, (6-(6-(6-(1-aminoethyl)pyridin-2-yl)-4-fluoro-1H-indazol-1-yl)pyridin-2-yl)methanol], less than 100 nM. In the case of `CC[C@@H](N)c1cccc(-c2ccc3cnn(-c4cccc(CO)n4)c3c2)n1` [Example 322, (R)-(6-(6-(6-(1-aminopropyl)pyridin-2-yl)-1H-indazol-1-yl)pyridin-2-yl)methanol], the IC50 is less than 100 nM. Next, `Cc1cccc(-n2ncc3ccc(-c4cn(C)cn4)cc32)n1` [Example 323, 6-(1-methyl-1H-imidazol-4-yl)-1-(6-methylpyridin-2-yl)-1H-indazole]: 100 to 1000 nM; `CCC[C@H](N)c1cccc(-c2cc(N3CCOCC3=O)c3cnn(-c4cccc(CO)n4)c3c2)n1` [Example 351, (S)-4-(6-(6-(1-aminobutyl)pyridin-2-yl)-1-(6-(hydroxymethyl)pyridin-2-yl)-1H-indazol-4-yl)morpholin-3-one]: 100 to 1000 nM. `C[C@H](N)c1cccc(-c2cc(-n3cccn3)c3cnn(-c4cccc(CO)n4)c3c2)n1` [Example 352, (S)-(6-(6-(6-(1-aminoethyl)pyridin-2-yl)-4-(1H-pyrazol-1-yl)-1H-indazol-1-yl)pyridin-2-yl)methanol] had a concentration for half-maximal inhibition (IC50) of less than 100 nM. Next, `Cc1ccn(-c2cc(-c3cccc([C@H](C)N)n3)cc3c2cnn3-c2cccc(CO)n2)n1` [Example 353, (S)-(6-(6-(6-(1-aminoethyl)pyridin-2-yl)-4-(3-methyl-1H-pyrazol-1-yl)-1H-indazol-1-yl)pyridin-2-yl)methanol]: less than 100 nM; `C[C@H](N)c1cccc(-c2cc(-c3csc(C(F)(F)F)n3)c3cnn(-c4cccc(CO)n4)c3c2)n1` [Example 382, (S)-(6-(6-(6-(1-aminoethyl)pyridin-2-yl)-4-(2-(trifluoromethyl)thiazol-4-yl)-1H-indazol-1-yl)pyridin-2-yl)methanol]: less than 100 nM. `C[C@H](N)c1cccc(-c2cc(-c3cc(C(F)(F)F)[nH]n3)c3cnn(-c4cccc(CO)n4)c3c2)n1` [Example 383, (S)-(6-(6-(6-(1-aminoethyl)pyridin-2-yl)-4-(5-(trifluoromethyl)-1H-pyrazol-3-yl)-1H-indazol-1-yl)pyridin-2-yl)methanol] gave a concentration for half-maximal inhibition (IC50) of less than 100 nM. Next, `CCC[C@H](N)c1cccc(-c2cc(-c3ncccn3)c3cnn(-c4cccc(CO)n4)c3c2)n1` [Example 384, (S)-(6-(6-(6-(1-aminobutyl)pyridin-2-yl)-4-(pyrimidin-2-yl)-1H-indazol-1-yl)pyridin-2-yl)methanol]: less than 100 nM; `C[C@H](N)c1cccc(-c2cc(-c3ncc(F)cn3)c3cnn(-c4cccc(CO)n4)c3c2)n1` [Example 385, (S)-(6-(6-(6-(1-aminoethyl)pyridin-2-yl)-4-(5-fluoropyrimidin-2-yl)-1H-indazol-1-yl)pyridin-2-yl)methanol]: less than 100 nM; `C[C@H](N)c1cccc(-c2cc(-c3ccn(C(F)F)n3)c3cnn(-c4cccc(CO)n4)c3c2)n1` [Example 386, (S)-(6-(6-(6-(1-aminoethyl)pyridin-2-yl)-4-(1-(difluoromethyl)-1H-pyrazol-3-yl)-1H-indazol-1-yl)pyridin-2-yl)methanol]: less than 100 nM. As for `C[C@H](N)c1cccc(-c2cc(-c3ccnn3C(F)F)c3cnn(-c4cccc(CO)n4)c3c2)n1` [Example 387, (S)-(6-(6-(6-(1-aminoethyl)pyridin-2-yl)-4-(1-(difluoromethyl)-1H-pyrazol-5-yl)-1H-indazol-1-yl)pyridin-2-yl)methanol], the half-inhibitory concentration (IC50) is less than 100 nM.
